Consider two molecules from patent US11779014B2, “Adjuvants” (SYNGENTA PARTICIPATIONS AG, priority 2017, dated 2023).

The test system of series [1] is Commelina benghalensis (COMBE). Briefly: Glasshouse adjuvancy test for nicosulfuron on COMBE. Format: in vivo. Conditions: 21 DAA. Here is the method:
(§1) The biological efficacies of blends of an oleyl 20 ethoxylate uncapped surfactant with an oleyl 20 ethoxylate surfactant with an n-hexyl ether cap as adjuvants for the herbicide nicosulfuron were tested in a glasshouse against three weed species sown into standard soil in pots and cultivated under controlled conditions in a glasshouse (24/18° C. day/night; 16 hours light; 65% humidity). Nicosulfuron was added to the spray tank as a standard WG (water dispersible granule) formulation. The plants were sprayed with nicosulfuron at rates of 15 or 60 grams of pesticide per hectare using a laboratory track sprayer which delivered the aqueous spray composition at a rate of 200 litres per hectare, using a flat fan nozzle (Teejet 11002VS) at 2 bar. The adjuvants were added to the spray solution at a total rate of 0.1 or 0.2% w/v in all cases and at extra lower rates for the oleyl 20EO alone and its 1:1 blend with the oleyl 20EO n-hexyl ether to show the dose response to these adjuvants. All spray solutions also contained 10% w/w of iso-propanol. The weed species and their BBCH growth stage at spraying were Chenopodium album (CHEAL; growth stage 15), Digitaria sanguinalis (DIGSA; growth stage 14), and Commelina benghalensis (COMBE; growth stage 14). Each spray test was replicated three times. The test plants were then grown in a glasshouse under controlled conditions (24/18° C. day/night; 16 hours light; 65% humidity) and watered twice a day. The efficacy of the herbicide was assessed visually and expressed as a percentage of the leaf area killed. Samples were assessed at a time period of 21 days following application. The following tables (3-8) show the effect of blends of the two surfactants at a total concentration of 0.2 and 0.1%. In each case the blends were 1:0, 3:1, 1:1, 1:3 and 0:1 w/w of oleyl 20EO:oleyl 20 EO n-hexyl ether.

The nature of series [2]: De-gelling temperature of aqueous surfactant blends by low shear rheology (Bohlin Gemini rheometer, storage modulus vs temperature). Format: physicochemical. Conditions: for Degelling temperature: Table 18. Here is the method: The temperatures at which blends of capped and uncapped surfactants de-gel were determined by standard low shear rheology with a Bohlin™ Gemini rheometer. The storage modulus (G′) at 1 Hz was determined at a strain of 0.001-0.002 in a standard C14 cup and bob geometry over a temperature range of 5-70° C., the exact range depending on the de-gelling point of the sample. Plots of storage modulus versus temperature were constructed and the de-gelling temperature was taken to be the point at which the modulus begins to fall rapidly from its high value in the gelled state (typically ca. 10^5 Pa) down to the final value in the de-gelled state (less than 10 Pa). Blends of surfactants were prepared at from 25 to 40% w/w total surfactant concentration in water. Samples were left in an oven at 55° C. for several days to ensure that the mixtures were homogeneous. Samples were placed in the C14 cup and the samples were de-gelled by raising the temperature in the rheometer, the bob was then inserted and the sample was then cooled at 1° C./min, whilst the storage modulus was regularly recorded during the cooling. Once the final temperature had been reached (i.e. when the sample had gelled), the temperature was then increased again and the modulus again recorded. The de-gelling temperature was determined from the increasing temperature cycle.
Degelling temperatures—the measurements relied on the same method as for ‘Example 1’ but just at 30% w/w total surfactant concentration.
De-gelling temperatures were measured using the same method as in Example 1.
This example provides de-gelling, cloud point and adjuvancy data for dodecyl 23 ethoxylate with n-hexyl cap and hexadecyl 20 ethoxylate with n-hexyl cap Cloud points were measured as described in example 1 for 1% aqueous solutions of the capped and uncapped surfactants both individually and as blends (see Table 30). Degelling temperatures were also measured as outlined in example 1 for 25, 30, 35 and 40% aqueous solutions of the capped and uncapped surfactants both individually and as blends (see Table 31).
This example provides de-gelling, cloud point and adjuvancy data for oleyl 20 ethoxylate with n-butyl, n-pentyl or benzyl ether caps end capped oleyl 20 ethoxylate. Cloud points were measured as described in example 1 for 1% aqueous solutions of the capped and uncapped surfactants both individually and as blends. Degelling temperatures were also measured as outlined in example 1 for 25, 30, 35 and 40% aqueous solutions o of the capped and uncapped surfactants both individually and as blends.

In series [3] the test system is Digitaria sanguinalis (DIGSA). Put plainly: Glasshouse adjuvancy test for nicosulfuron on DIGSA. Format: in vivo. Here is the method: as §1, with “ether. The biological efficacies of blends of oleyl 20 ethoxylate and oleyl 20EO ethoxylate with a benzoate cap as adjuvants for the herbicide nicosulfuron were tested in a glasshouse using the same method as for ‘Example 1’ but against just two weed species and with just 0.2% w/v total adjuvant concentration. The weed species and their BBCH growth stage at spraying HI were Chenopodium album (CHEAL; growth stage 13-15) and Digitaria sanguinalis (DIGSA; growth stage 14-22).” for “ether.”

Setting [4] is: nicosulfuron 15 g ai/ha, 0.1% surfactant total concentration.
[5] abbreviates: nicosulfuron 15 g ai/ha, 0.2% surfactant total concentration.
Setting [6] is: nicosulfuron 60 g ai/ha, 0.1% surfactant total concentration.
The mark [7] stands for this setting: nicosulfuron 60 g ai/ha, 0.2% surfactant total concentration.
Setting [8] is: total surfactant concentration 25% w/w in water, Table 1.
Setting [9] is: total surfactant concentration 30% w/w in water, Table 1.
[10] abbreviates: total surfactant concentration 35% w/w in water, Table 1.
The mark [11] stands for this setting: total surfactant concentration 40% w/w in water, Table 1.
[12] abbreviates: nicosulfuron 15 g ai/ha, 0.1% total surfactant concentration, 21 days, Table 8.
The mark [13] stands for this setting: nicosulfuron 15 g ai/ha, 0.2% total surfactant concentration, 21 days, Table 7.
The mark [14] stands for this setting: nicosulfuron 60 g ai/ha, 0.1% total surfactant concentration, 21 days, Table 8.
[15] abbreviates: nicosulfuron 60 g ai/ha, 0.2% total surfactant concentration, 21 days, Table 7.

As for `CCCCCCCC/C=C\CCCCCCCCOCCOCCOCCOCCOCCOCCOCCOCCOCCOCCOCCOCCOCCOCCOCCOCCOCCOCCOCCOCCO` [Oleyl 20EO, oleyl 20 ethoxylate], the Mean control in series [1] (setting [4]) is given as 63.3%; in series [1] (setting [5]), 80%; in series [1] (setting [6]) it was 63.3%; in series [1] (setting [7]), 72.5%; in series [3] (dose response, nicosulfuron 15 g ai/ha, adjuvant 0.05%), 60.0%; in series [3] (dose response, nicosulfuron 15 g ai/ha, adjuvant 0.1%), 76.7%. The Mean control in series [3] (dose response, nicosulfuron 15 g ai/ha, adjuvant 0.2%) was 83.3%; in series [3] (dose response, nicosulfuron 60 g ai/ha, adjuvant 0.05%), 53.3%; in series [3] (dose response, nicosulfuron 60 g ai/ha, adjuvant 0.1%), 60.0%; in series [3] (dose response, nicosulfuron 60 g ai/ha, adjuvant 0.2%) it was 80.0%; in series [3] (setting [12]), 76.7%; in series [3] (setting [13]), 83.3%. Moreover, the Mean control in series [3] (nicosulfuron 15 g ai/ha, 0.2% w/v total adjuvant, Example 3, growth stage 14-22) was 91.3%; in series [3] (setting [14]), 60%; in series [3] (setting [15]), 80%; in series [3] (nicosulfuron 60 g ai/ha, 0.2% w/v total adjuvant, Example 3, growth stage 14-22), 85.0%. The De-gelling temperature amounted to 42.4 °C in series [2] (30% w/w total surfactant concentration, Table 15); 66.3 °C in series [2] (40% w/w, Table 19); 26.9 °C in series [2] (setting [8]); 23.3 °C in series [2] (total surfactant concentration 25% w/w, Table 35); 45.2 °C in series [2] (setting [9]); 40.9 °C in series [2] (total surfactant concentration 30% w/w, Table 35). Also, the De-gelling temperature in series [2] (setting [10]) is 51.3 °C; in series [2] (total surfactant concentration 35% w/w, Table 35), 56.7 °C; in series [2] (setting [11]), 70.6 °C; in series [2] (total surfactant concentration 40% w/w, Table 35), 63.1 °C. The Degelling temperature in series [2] (total surfactant concentration 25% w/w) was found to be 26.9 °C; in series [2] (total surfactant concentration 30% w/w) it was 45.2 °C; in series [2] (total surfactant concentration 35% w/w) it was 51.3 °C; in series [2] (total surfactant concentration 40% w/w), 70.6 °C.

Turning to Oleyl 20EO n-hexyl ether, the Mean control in series [1] (setting [4]) is listed as 70%; in series [1] (setting [5]), 80%; in series [1] (setting [6]) it was 73.3%; in series [1] (setting [7]) it was 72.5%; in series [3] (setting [12]), 81.7%; in series [3] (setting [13]), 73.3%. Moreover, the Mean control in series [3] (setting [14]) is given as 75%; in series [3] (setting [15]) it was 81.7%. Further, the De-gelling temperature in series [2] (setting [8]) stood at 5.0 °C; in series [2] (setting [9]), 5.0 °C; in series [2] (setting [10]) it was 5.0 °C; in series [2] (setting [11]), 16.7 °C.
